This is an account of results in patent US20250032641A1, “IMMUNE- STIMULATING COMPOUNDS LINKED TO GLYCOGEN-BASED POLYSACCHARIDE NANOPARTICLES FOR SENSITIZING CANCER CELLS TO A CHEMOTHERAPEUTIC DRUG” (GLYSANTIS BIOTECH INC., priority 2020, published 2025).

Test [1] concerns IFN-beta, ISG15, CXCL10 transcripts in SKOV3, SKBR3, MCF7, HeLa, B16F10 cells. The test is described as follows: qRT-PCR transcript levels of interferon-stimulated genes / innate immune response in cancer cell lines. The format is cell-based, human. The conditions noted are these: cancer cells (Breast, Ovarian, Cervical, Melanoma); same doses bound and unbound. The protocol:
SKOV-3 cells were treated with media alone (CTRL), 125 ng/ml of pI:pC, or 125 ng/mL of poly IC complexed with 250 ng/ml of PhG (poly IC:PhG) for 6 hours. Transcript levels were measured using qRT-PCR.
SKRBR-3 cells were treated with media alone (CTRL), 2.5 μg/mL of pI:pC, or 2.5 μg/mL of poly IC complexed with 5 μg/mL of PhG (poly IC:PhG) for 6 hours. Transcript levels were measured using qRT-PCR.
MCF-7 cells were treated with media alone (CTRL), 5 μg/mL of pI:pC, or 5 μg/mL of poly IC complexed with 10 μg/mL of PhG (poly IC:PhG) for 6 hours. Transcript levels were measured using qRT-PCR.
HeLa cells were treated with media alone (CTRL), 5 μg/mL of pI:pC, or 5 μg/mL of poly IC complexed with 10 μg/mL of PhG (poly IC:PhG) for 6 hours. Transcript levels were measured using qRT-PCR.
Hela cells were treated with media alone (CTRL), 5 μg/mL of pI:pC, or 5 μg/mL of poly IC complexed with 10 μg/mL of PhG (poly IC:PhG) for 6 hours. Transcript levels were measured using qRT-PCR. […]
Cells were plated in 6-well plates at 1×10E6 cells per well in DMEM and allowed to attach overnight. […] All transcripts were normalized to actin and quantified relative to mock treated.

For test [2], the system named is pI:pC resistant SKOV-3 cells. Nature of the test: Cell viability by alamar blue, carboplatin alone or combined with free or nanoparticle bound pI:pC. The format is cell-based. The conditions noted are these: carboplatin combination, 72 hours. The protocol: Twenty-four (24) hours post seeding, cells were left untreated, or treated with EC50 carboplatin, 125 ng/ml pI:pC, 125 ng/ml pI:pC ionically bound to glycogen nanoparticles (1:1 w/w), or the combination of EC50 carboplatin and 125 ng/ml pI:pC, or EC50 carboplatin and 125 ng/ml nanoparticle bound pI:pC, and cell viability was measured after 72 hours incubation.
Cell viability was measured by alamar blue of pI:pC resistant SKOV-3 cells treated with carboplatin alone, or in combination with “free” pI:pC or glycogen nanoparticle bound pI:pC. SKOV-3 cells were plated in a 12-well dish at 1.5×10^6 per well. Twenty-four (24) hours post seeding, cells were left untreated, or treated with EC50 carboplatin, 125 ng/ml pI:pC, 125 ng/ml pI:pC ionically bound to glycogen nanoparticles (1:1 w/w), or the combination of EC50 carboplatin and 125 ng/ml pI:pC, or EC50carboplatin and 125 ng/ml nanoparticle bound pI:pC. Cells were incubated at 37° C., 5% CO2 for 72 hours, and cell viability was measured by alamar blue assay according to the manufacturer's protocol (Invitrogen).
On the technique in general: Resazurin is reduced to fluorescent resorufin, in cell work by metabolically active cells.

For “polyinosinic:polycytidylic acid [unbound pI:pC]”, the innate immune response entry in test [1] was “ineffective”. Also, the “sensitization of pI:pC resistant cells to a chemotherapeutic drug” value in test [2] was “ineffective”.
